Test system: 406 cancer cell lines, 73 blood tumor cell lines and 333 solid tumor cell lines
Assay: OmniScreen drug efficacy on cancer cell lines, fitted area under curve (AUC) of dose-response
Assay type: cell-based
Design: AUCs: unit not given beside the values
Protocol: Predictive biomarkers for genes indicating responsiveness to a therapeutic compound can be determined using a cell-based screening technique, such as that offered under the name OmniScreen™ (Crown Biosciences).
In one experimental study, predictive biomarkers were determined for Compound A197 efficacy on 406 cancer cell lines, 73 blood tumor cell lines and 333 solid tumor cell lines. Genomic data for the cell lines was downloaded from the Cancer Cell Line Encyclopedia Project (CCLE) website. Driver mutations were predicted on the Cancer Genome Interpreter Database; only driver mutations were used in the mutation related analysis.
Dose-response curves were fitted by the 4-parameter model:
in which top and bottom are the two asymptotes of the sigmoidal curve, EC50 is the relative IC50, and concentration x is in log−10 scale. To accommodate experimental errors, Bottom was allowed to go down to −20%, and Top was allowed to go up to 120%. The fitting error of a model is measured by
σECS0 is the standard error of EC50. In general, such fitting error should be less than 40% for a model to be considered acceptable. The fitted area under curve (AUC) is calculated by
where a=log(3, 10) and b=log(30000,10).

Cc1nn(-c2nc(-c3ccc(C(F)(F)F)cc3)c(SC(C)C)s2)c(C(=O)O)c1-c1cccc(F)c1 [Compound A197, 4-(3-fluorophenyl)-1-(5-(isopropylthio)-4-(4-(trifluoromethyl)phenyl)thiazol-2-yl)-3-methyl-1H-pyrazole-5-carboxylic acid]
AUCs (22Rv1, Prostate): 2.52
AUCs (8505C, H&N/Thyroid): 3.78
AUCs (A253, Submaxillary gland): 3.32
AUCs (A875, Skin): 3.84
AUCs (A2058, Skin): 3.64
AUCs (A2780, Ovary): 2.43
AUCs (A2780cis, Ovary): 2.68
IC50 (A2780cis, Ovary): 541 nM
AUCs (A-172, Brain&Nerves): 3.29
AUCs (A-204, Muscle): 3.66
AUCs (A-375, Skin): 3.42
AUCs (A-427, Lung): 3.59
AUCs (A-431, Skin): 2.96
AUCs (A-673, Muscle): 2.78
AUCs (AGS, Stomach/Gastric): 3.63
IC50 (AGS, Stomach/Gastric): 205000 nM
AUCs (AN3 CA, Uterus): 3.88
AUCs (ARH-77, Blood): 3.22
AUCs (ASH-3, H&N/Thyroid): 3.41
responsiveness of blood tumor cell lines versus solid tumor cell lines (AUC, Welch's t-test P-value 2.3e-16): more likely to be responsive
AUCs (AsPC-1, Pancreas): 3.59
AUCs (BT-20, Breast): 3.2
AUCs (BT-483, Breast): 3.43
AUCs (BxPC-3, Pancreas): 2.97
AUCs (C4-2, Prostate): 3.61
AUCs (C666-1, Nose): 3.15
AUCs (C-33 A, Uterus): 3.7
AUCs (CAL-27, Tongue): 3.17
AUCs (CFPAC-1, Pancreas): 3.56
AUCs (COV644, Ovary): 3.69
AUCs (Ca Ski, Uterus): 4.35
AUCs (Caki-2, Kidney): 3.53
AUCs (Calu-6, Lung): 3.21
AUCs (Caov-3, Ovary): 3.65
AUCs (Capan-1, Pancreas): 3.82
AUCs (Capan-2, Pancreas): 3.28
AUCs (CoC1, Ovary): 2.95
AUCs (CoC1/DDP, Ovary): 3.33
AUCs (D283 Med, Brain&Nerves): 3.28
AUCs (DMS 79, Lung): 4.09
AUCs (DMS 114, Lung): 3.56
AUCs (DU 145, Prostate): 2.99
AUCs (DV-90, Lung): 3.1
AUCs (Daoy, Brain&Nerves): 3.14
AUCs (Detroit 562, Pharynx): 3.54
AUCs (DoTc2 4510, Uterus/Cervix): 3.9
AUCs (EBC-1, Lung): 3.47
AUCs (ES-2, Ovary): 3.75
IC50 (ES-2, Ovary): 70800 nM
AUCs (FaDu, Pharynx): 2.9
AUCs (GTL-16, Stomach/Gastric): 3.18
AUCs (HCC 94, Uterus): 2.92
IC50 (HCC 94, Uterus): 806 nM
AUCs (HCC1187, Breast): 3.63
AUCs (HCC1500, Breast): 3.27
AUCs (HCC1806, Breast): 3.39
AUCs (HCC1937, Breast): 3.36
AUCs (HCC1954, Breast): 3.44
AUCs (HCC2218, Breast): 3.48
AUCs (HCC2935, Lung): 3.49
AUCs (HCCC-9810, Liver): 3.64
AUCs (HCCLM3, Liver): 3.87
AUCs (HEC-1-A, Uterus): 3.28
AUCs (HEC-1-B, Uterus): 2.85
AUCs (HGC-27, Stomach/Gastric): 2.39
AUCs (HLE, Liver): 3.3
AUCs (HLF, Liver): 3.43
AUCs (HPAC, Pancreas): 2.98
AUCs (HT-3, Uterus/Cervix): 3.91
IC50 (HT-3, Uterus/Cervix): 30100 nM
AUCs (HT-55, Large intestine/Colorectum): 4
AUCs (HT-1080, Soft tissue): 3.07
AUCs (HT-1376, Bladder): 4.11
AUCs (HUH-1, Liver): 3.81
AUCs (HeLa 229, Cervix): 3.37
AUCs (Hep3B, Liver): 3.5
IC50 (Homo sapiens, 22Rv1, 22Rv1, Prostate): 1090 nM
IC50 (Homo sapiens, A204, A-204, Muscle): 184000 nM
IC50 (Homo sapiens, A673, A-673, Muscle): 701 nM
IC50 (Homo sapiens, A2780, A2780, Ovary): 863 nM
IC50 (Homo sapiens, A-375, A-375, Skin): 28100 nM
IC50 (Homo sapiens, A-431, A-431, Skin): 1110 nM
IC50 (Homo sapiens, AN3-CA, AN3 CA, Uterus): 45600 nM
IC50 (Homo sapiens, BXPC-3, BxPC-3, Pancreas): 351 nM
IC50 (Homo sapiens, C6661, C666-1, Nose): 24600 nM
IC50 (Homo sapiens, CAL-27, CAL-27, Tongue): 3420 nM
IC50 (Homo sapiens, Ca-Ski, Ca Ski, Uterus): 41300 nM
IC50 (Homo sapiens, DMS-79, DMS 79, Lung): 420000 nM
IC50 (Homo sapiens, DU-145, DU 145, Prostate): 835 nM
IC50 (Homo sapiens, FaDu, Pharynx): 341 nM
IC50 (Homo sapiens, HEC-1B, HEC-1-B, Uterus): 438 nM
IC50 (Homo sapiens, HGC-27, HGC-27, Stomach/Gastric): 513 nM
IC50 (Homo sapiens, HPAC, Pancreas): 467 nM
IC50 (Homo sapiens, HT-1080, HT-1080, Soft tissue): 990 nM
IC50 (Homo sapiens, HuTu80, Hutu 80, Small intestine/Duodenum): 880 nM
IC50 (Homo sapiens, Ishikawa, Uterus): 297 nM
IC50 (Homo sapiens, JEG-3, JEG-3, Placenta): 993 nM
IC50 (Homo sapiens, LNCaP-Clone-FGC, LNCaP clone FGC, Prostate): 172 nM
IC50 (Homo sapiens, ME-180, ME-180, Uterus): 562 nM
IC50 (Homo sapiens, MES-SA, Uterus): 480 nM
IC50 (Homo sapiens, MES-SA/Dx5, MES-SA/DX5, Uterus): 342 nM
IC50 (Homo sapiens, MIA PaCa-2, MIA PaCa-2, Pancreas): 2910 nM
IC50 (Homo sapiens, MKN-1, MKN1, Stomach/Gastric): 5360 nM
IC50 (Homo sapiens, NCI-H146, NCI-H146, Lung): 42600 nM
IC50 (Homo sapiens, NCI-H187, NCI-H187, Lung): 8360 nM
IC50 (Homo sapiens, NCI-H226, NCI-H226, Lung): 2230 nM
IC50 (Homo sapiens, NCI-H446, NCI-H446, Lung): 30500 nM
IC50 (Homo sapiens, NCI-H526, NCI-H526, Lung): 212000 nM
IC50 (Homo sapiens, NCI-H1648, NCI-H1648, Lung): 72900 nM
IC50 (Homo sapiens, NCI-H2452, NCI-H2452, Lung): 70800 nM
IC50 (Homo sapiens, NUGC-3, NUGC-3, Stomach/Gastric): 26500 nM
IC50 (Homo sapiens, NUGC-4, NUGC-4, Stomach/Gastric): 1350 nM
IC50 (Homo sapiens, OVCAR-8, OVCAR-8, Ovary): 1020 nM
IC50 (Homo sapiens, PANC-1, PANC-1, Pancreas): 2610 nM
IC50 (Homo sapiens, RL95-2, RL95-2, Uterus): 416 nM
IC50 (Homo sapiens, RPMI-2650, RPMI-2650, Nose): 843 nM
IC50 (Homo sapiens, SCC-4, SCC-4, Tongue): 833000 nM
IC50 (Homo sapiens, SCC-9, SCC-9, Tongue): 26100 nM
IC50 (Homo sapiens, SK-MEL-5, SK-MEL-5, Skin): 75100 nM
IC50 (Homo sapiens, SK-MEL-28, SK-MEL-28, Skin): 105000 nM
IC50 (Homo sapiens, SK-OV-3, SK-OV-3, Ovary): 84900 nM
IC50 (Homo sapiens, SNU1, SNU-1, Stomach/Gastric): 12600 nM
IC50 (Homo sapiens, SNU-5, SNU-5, Stomach/Gastric): 1950 nM
IC50 (Homo sapiens, SW626, SW626, Ovary): 415000 nM
IC50 (Homo sapiens, SW756, SW756, Ovary): 37900 nM
IC50 (Homo sapiens, SW982, SW982, Soft tissue): 66000 nM
IC50 (Homo sapiens, WM 266-4, WM-266-4, Skin): 32400 nM
AUCs (HuCCT1, Liver): 3.24
AUCs (Hutu 80, Small intestine/Duodenum): 2.69
AUCs (IM95m, Stomach/Gastric): 2.9
IC50 (IM95m, Stomach/Gastric): 601 nM
AUCs (Ishikawa, Uterus): 2.44
AUCs (JAR, Placenta): 2.57
IC50 (JAR, Placenta): 673 nM
AUCs (JEG-3, Placenta): 3.2
AUCs (JHH-5, Liver): 3.56
AUCs (JIMT-1, Breast): 3.62
AUCs (KATO III, Stomach/Gastric): 3.2

From patent US20210278408A1, “METHODS OF TREATMENT OF CANCER WITH SUBSTITUTED PYRROLE AND PYRAZOLE COMPOUNDS AND DIAGNOSIS OF CANCERS SUSCEPTIBLE TO TREATMENT WITH SUBSTITUTED PYRROLE AND PYRAZOLE COMPOUNDS” (Bantam Pharmaceutical, LLC, priority 2018, published 2021)
